The values that follow come from patent US5112864A, “PLA2 inhibitors as antiinflammatories” (G. D. Searle & Co., priority 1991, dated 1992).

In the test the target is T1, Human synovial fluid phospholipase A2 (HSF-PLA2) (Homo sapiens, UniProt P14555).
T1 construct: Human synovial fluid phospholipase A2 was purified approximately 5000 fold; from tissue; host or cells: human synovial fluid
T1 sequence (P14555 21-144): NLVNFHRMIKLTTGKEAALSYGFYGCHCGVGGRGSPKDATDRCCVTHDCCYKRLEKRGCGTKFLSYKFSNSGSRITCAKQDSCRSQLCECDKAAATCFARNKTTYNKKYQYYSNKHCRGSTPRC
Nature of the test: Human synovial fluid phospholipase A2 (HSF-PLA2) assay, [14C]-oleate-labeled autoclaved E. coli substrate. The note with it: purified HSF-PLA2; pH 7.0, 5 mM CaCl2; 5 min pre-incubation; 37° C., 30 minutes; mean. The test is classed as biochemical. On the procedure: Human synovial fluid phospholipase A2 was purified approximately 5000 fold following the procedures of Franson et al., Lung 160, 275-284 (1982) and Vishwanath et al., Inflammation 12(6), 549-56 (1988). Following purification the enzyme activity was measured by a modified methodology using [^14 C]-oleate-labeled, autoclaved E. coli as the substrate as also shown in the above noted references. The assay was performed in a final volume of 100 μl containing 50 mM HEPES (pH 7.0), 150 mM NaCl, 5mM CaCl2, 7 n mole [^14 C]-oleate-labeled E. coli phospholipid and with or without the compound from one of the examples herein undergoing an assay. The compound or control vehicle was pre-incubated with the PLA2 for 5 minutes followed by addition of the E. coli substrate to initiate the reaction. The reaction was maintained at 37° C. for 30 minutes and then terminated by the addition of 2 ml tetrahydrofuran (THF). The reaction product, [^14 C]-oleic acid, was extracted using a 1 ml Bond Elut-NH2 Solid phase extraction column. The IC50 value for the compound (mean -S.E.) is given in the following Table I and represents the concentration of the indicated compound required to inhibit 50% of the PLA2 activity.
What is called IC50 is the point on the concentration scale where inhibition reaches its midpoint. Low values mean greater potency, high ones weaker potency. As for `CCCCCCCCCCCCCC#CC(=O)Cc1cccc(C(=O)OC)c1` [Example 5, methyl 3-(2-oxo-3-heptadecynyl) benzoate], the IC50 came out at 6 µM. Next, `COC(=O)c1cccc(CC(=O)C#CCCCCCCCCCOc2ccccc2)c1` [Example 7, methyl 3-(2-oxo-13-phenoxy-3-tridecynyl)benzoate]: 2.75 µM. Next, `COCCCCCCCCCC#CC(=O)Cc1cccc(C(=O)OC)c1` [Example 9, methyl 3-(2-oxo-13-methoxy-3-tridecynyl)benzoate]: 20.6 µM; `CCCCCCCCCCCCCC#CC(=O)Cc1ccccc1C(=O)OC` [Example 11, methyl 2-(2-oxo-3heptadecynyl)benzoate]: 17.4 µM; `CCCCCCCCCCCCCC#CC(=O)Cc1ccc(C(=O)OC)cc1` [Example 14, methyl 4-(2-oxo-3heptadecynyl)benzoate]: 2.2 µM.
